Test results published in patent publication US20250230165A1, “HETEROCYCLIC COMPOUNDS FOR USE IN THE TREATMENT OF CANCER” (ARTIOS PHARMA LIMITED, priority 2021, published 2025).

Target: T1, Human Polθ polymerase domain (aa1820-2590) (Homo sapiens, UniProt O75417)
T1 construct: Human Polθ polymerase domain (aa1820-2590) was expressed in E. coli; made in house; host or cells: E. coli
T1 sequence (O75417 1820-2590): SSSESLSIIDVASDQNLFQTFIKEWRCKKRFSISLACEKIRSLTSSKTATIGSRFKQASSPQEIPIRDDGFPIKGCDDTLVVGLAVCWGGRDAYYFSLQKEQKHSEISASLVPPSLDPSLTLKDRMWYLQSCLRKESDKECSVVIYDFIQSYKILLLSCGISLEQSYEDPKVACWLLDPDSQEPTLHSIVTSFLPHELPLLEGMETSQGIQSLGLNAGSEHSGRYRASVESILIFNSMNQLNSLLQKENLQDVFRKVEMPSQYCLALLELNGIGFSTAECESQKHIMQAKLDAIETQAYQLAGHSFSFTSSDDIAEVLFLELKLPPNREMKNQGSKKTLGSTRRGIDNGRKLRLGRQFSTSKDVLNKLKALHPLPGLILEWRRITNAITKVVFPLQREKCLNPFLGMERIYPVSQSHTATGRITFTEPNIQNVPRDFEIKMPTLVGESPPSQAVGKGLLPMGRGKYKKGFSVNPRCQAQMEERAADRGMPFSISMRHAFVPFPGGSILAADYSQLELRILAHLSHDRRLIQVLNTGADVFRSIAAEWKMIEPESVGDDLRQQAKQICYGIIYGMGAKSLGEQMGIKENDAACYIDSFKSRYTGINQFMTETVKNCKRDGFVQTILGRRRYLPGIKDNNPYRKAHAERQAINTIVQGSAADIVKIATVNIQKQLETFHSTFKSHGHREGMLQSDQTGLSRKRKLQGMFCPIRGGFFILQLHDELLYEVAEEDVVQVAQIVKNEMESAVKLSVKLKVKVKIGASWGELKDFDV
Assay: Polθ Polymerase Domain Kinact/KI Assay (PicoGreen)
Format: biochemical
Conditions: 0.8 nM Polθ, 100 nM DNA substrate, kobs vs [I] fit for 2-step covalent inhibitor
How it was run: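 PicoGreen fluorescence read-out of primer extension; progress curves per inhibitor concentration fitted for kobs, then kobs vs [I] fitted to a two-step covalent model to give Kinact and KI. Conditions: 0.8 nM enzyme, 100 nM DNA substrate, […].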

| SMILES | Kinact/Kl |
| --- | --- |
| C=CC(=O)N1CCOC[C@@H]1c1ccc(CN2C[C@H]3CC(=O)N(c4cc(C(F)(F)F)cc(C)n4)[C@@H]3C(=O)N(C)c3cccc(C)c32)cc1 (racemic) [Example 323b, (3aR,11aS)-5-(4-((S/R)-4-acryloyl-morpholin-3-yl)-benzyl)-6,10-dimeth-yl-1-(6-methyl-4-(trifluoromethyl)-pyridin-2-yl)-1,3a,4,5,10,11a-hexahydro-2H-benzo[b]pyrrolo [2,3-f][1,4]diazocine-2,11(3H)-dione] | 330000 M⁻¹ s⁻¹ |
| C=CC(=O)N1CCOC[C@H]1c1ccc(CN2C[C@H]3CC(=O)N(c4cc(C(F)(F)F)cc(C)n4)[C@@H]3C(=O)N(C)c3cccc(C)c32)cn1 (racemic) [Example 324a, (3aR,11aS)-5-((6-((R/S)-4-acryloyl-morpholin-3-yl)pyr-idin-3-yl)methyl)-6,10-dimethyl-1-(6-methyl-4-(trifluoro-methyl)pyridin-2-yl)-1,3a,4,5,10, 11a-hexahydro-2H-benzo[b]pyrrolo [2,3-f][1,4]diazo-cine-2,11(3H)-dione] | 150000 M⁻¹ s⁻¹ |
| C=CC(=O)N1CCOC[C@@H]1c1ccc(CN2C[C@H]3CC(=O)N(c4cc(C(F)(F)F)cc(C)n4)[C@@H]3C(=O)N(C)c3cccc(C)c32)cn1 (racemic) [Example 324b, (3aR,11aS)-5-((6-((S/R)-4-acryloyl-morpholin-3-yl)pyr-idin-3-yl)methyl)-6,10-dimethyl-1-(6-methyl-4-(trifluoro-methyl)pyridin-2-yl)-1,3a,4,5,10,11a-hexahydro-2H-benzo[b]pyrrolo [2,3-f][1,4]diazo-cine-2,11(3H)-dione] | 470000 M⁻¹ s⁻¹ |
| C=C(CN(C)C)C(=O)N[C@H]1CCc2nc(CN3C[C@H]4CC(=O)N(c5cc(C(F)(F)F)cc(C)n5)[C@@H]4C(=O)N(C)c4cccc(C)c43)cn2C1 (racemic) [Example 329b, N-((S/R)-2-(((3aR, 11aS)-6,10-dimethyl-1-(6-methyl-4-(tri-fluoromethyl)pyridin-2-yl)-2,11-dioxo-1,2,3,3a,4,10,11,11a-octahydro-5H-benzo [b]pyrrolo[2,3-f][1,4]diazocin-5-yl)meth-yl)-5,6,7,8-tetrahydro-imidazo[1,2-a]pyr-idin-6-yl)-2-((dimeth-ylamino)methyl)-acrylamide] | 5.73e+06 M⁻¹ s⁻¹ |
| C=C(CN(C)C)C(=O)N[C@H]1CCn2cc(CN3C[C@H]4CC(=O)N(c5cc(C(F)(F)F)cc(C)n5)[C@@H]4C(=O)N(C)c4cccc(C)c43)nc2C1 (racemic) [Example 330a, N-((S/R)-2-(((3aR, 11aS)-6,10-dimethyl-1-(6-methyl-4-(trifluoromethyl)-pyridin-2-yl)-2,11-dioxo-1,2,3,3a,4,10, 11,11a-octahydro-5H-benzo[b]pyrrolo [2,3-f][1,4]diazocin-5-yl)methyl)-5,6,7,8-tetrahydroimidazo [1,2-a]pyridin-7-yl)-2-((dimethylamino)-methyl)acrylamide] | 2.74e+06 M⁻¹ s⁻¹ |
| C=C(CN(C)C)C(=O)N[C@@H]1CCn2cc(CN3C[C@H]4CC(=O)N(c5cc(C(F)(F)F)cc(C)n5)[C@@H]4C(=O)N(C)c4cccc(C)c43)nc2C1 (racemic) [Example 330b, N-((R/S)-2-(((3aR, 11aS)-6,10-dimethyl-1-(6-methyl-4-(trifluoromethyl)pyr-idin-2-yl)-2,11-dioxo-1,2,3,3a,4,10,11,11a-octahydro-5H-benzo [b]pyrrolo[2,3-f][1,4]diazocin-5-yl)meth-yl)-5,6,7,8-tetrahydro-imidazo[1,2-a]pyridin-7-yl)-2-((dimethyl-amino)methyl)acryl-amide] | 1.15e+06 M⁻¹ s⁻¹ |
| C=CC(=O)N1CC2(C1)C(C)N(CCN1C[C@H]3CC(=O)N(c4cc(C(F)(F)F)cc(C)n4)[C@@H]3C(=O)N(C)c3cccc(F)c31)C[C@H]1COCCN12 (single isomer, unassigned) [Example 7] | 410000 M⁻¹ s⁻¹ |
| C=CC(=O)N1CC2(C1)[C@H](C)N(CCN1C[C@H]3CC(=O)N(c4cc(C(F)(F)F)cc(C)n4)[C@@H]3C(=O)N(C)c3cccc(F)c31)C[C@H]1COCCN12 (single isomer, unassigned) [Example 8] | 2e+06 M⁻¹ s⁻¹ |

The remaining lines, values ahead:

| Kinact/Kl | SMILES |
| --- | --- |
| 400000 M⁻¹ s⁻¹ | C=CC(=O)N1CC(O[C@H]2CN(CCN3C[C@H]4CC(=O)N(c5cc(C(F)(F)F)cc(C)n5)[C@@H]4C(=O)N(C)c4cccc(F)c43)C[C@@H]2O)C1 (relative stereo) [Example 11, (3aR,11aS)-5-(2-((rel-trans)-3-((1-acryloylazetidin-3-yl)oxy)-4-hydroxypyrrolidin-1-yl)ethyl)-6-fluoro-10-methyl-1-(6-methyl-4-(trifluoromethyl)pyridin-2-yl)-1,3a,4,5,10,11a-hexahydro-2H-benzo[b]pyrrolo[2,3-f][1,4]diazocine-2,11(3H)-dione] |
| 200000 M⁻¹ s⁻¹ | C=CC(=O)N1C[C@H]2CCN(CCN3C[C@H]4CC(=O)N(c5cc(C(F)(F)F)cc(C)n5)[C@@H]4C(=O)N(C)c4cccc(F)c43)C[C@H]2C1 (relative stereo) [Example 25a, (3aR,11aS)-5-(2-((3aS/R,7aS/R)-2-acryloyloctahydro-5H-pyrrolo[3,4-c]pyridin-5-yl)ethyl)-6-fluoro-10-methyl-1-(6-methyl-4-(trifluoromethyl)pyridin-2-yl)-1,3a,4,5,10,11a-hexahydro-2H-benzo[b]pyrrolo[2,3-f][1,4]diazocine-2, 11(3H)-dione] |
| 2.06e+06 M⁻¹ s⁻¹ | C=CC(=O)N1C[C@H]2CN(CCN3C[C@H]4CC(=O)N(c5cc(C(F)(F)F)cc(C)n5)[C@@H]4C(=O)N(C)c4cccc(F)c43)CCN2[C@H](C)C1 (relative stereo) [Example 64a, (3aR,11aS)-5-(2-((6R/S,9aR/S)-8-acryloyl-6-methyloctahydro-2H-pyrazino[1,2-a]pyrazin-2-yl)ethyl)-6-fluoro-10-methyl-1-(6-methyl-4-(trifluoromethyl)pyridin-2-yl)-1,3a,4,5,10,11a-hexahydro-2H-benzo[b]pyrrolo[2,3-f][1,4]diazocine-2,11(3H)-dione] |
| 1.72e+06 M⁻¹ s⁻¹ | C=CC(=O)N1CC[C@@H](O)[C@H](N(C)CCN2C[C@H]3CC(=O)N(c4cc(C(F)(F)F)cc(C)n4)[C@@H]3C(=O)N(C)c3cccc(Cl)c32)C1 (relative stereo) [Example 113, (3aR,11aS)-5-(2-(((rel-trans)-1-acryloyl-4-hydroxypiperidin-3-yl)(methyl)amino)ethyl)-6-chloro-10-methyl-1-(6-methyl-4-(trifluoromethyl)pyridin-2-yl)-1,3a,4,5,10,11a-hexahydro-2H-benzo[b]pyrrolo[2,3-f][1,4]diazocine-2,11(3H)-dione] |
| 600000 M⁻¹ s⁻¹ | C=CC(=O)N1C[C@@H]2CN(CCN3C[C@H]4CC(=O)N(c5cc(C(F)(F)F)cc(C)n5)[C@@H]4C(=O)N(C)c4cccc(F)c43)CCN2C[C@@H]1C (single isomer, unassigned) [Example 9] |
| 210000 M⁻¹ s⁻¹ | C=CC(=O)N1CC2CN(CCN3C[C@H]4CC(=O)N(c5cc(C(F)(F)F)cc(C)n5)[C@@H]4C(=O)N(C)c4cccc(F)c43)CCN2C[C@@H]1C (single isomer, unassigned) [Example 10] |
| 140000 M⁻¹ s⁻¹ | C=CC(=O)N1CCC12CCN(CCN1C[C@H]3CC(=O)N(c4cc(C(F)(F)F)cc(C)n4)[C@@H]3C(=O)N(C)c3cccc(F)c31)C2 (single isomer, unassigned) [Example 21b] |
